Measurements taken from ChEMBL document CHEMBL4507326, “Data for DCP probe TP-030-2” (2021).

Assays:
[1] = molecular target: Alpha-2B adrenergic receptor (Homo sapiens, UniProt P18089); assay: GPCRScan assay: inhibition of Alpha2B; parameters: radioligand conc. used [nm] 1.5 – 2.0, parental cells HEKT
[2] = molecular target: Neuropeptide Y receptor type 1 (Homo sapiens) (UniProt P25929); assay: Inhibition of Neuropeptide Y Y1 at 10 µM in the Eurofins-Panlabs radioligand binding assay (Eurofins_assay_257010); conditions: Compound concentration 10.0 uM
[3] = molecular target: Tyrosine-protein kinase Blk (Homo sapiens, UniProt P51451); assay: BLK(BLK1CGF1) Takeda global kinase panel
[4] = molecular target: BMP-2-inducible protein kinase (Homo sapiens, UniProt Q9NSY1); assay: BIKE(BM2KLGY1) Takeda global kinase panel
[5] = molecular target: Bone morphogenetic protein receptor type-1A (Homo sapiens, UniProt P36894); assay: BMPR1A(BM1APHRG) Takeda global kinase panel
[6] = molecular target: Calcium/calmodulin-dependent protein kinase type 1G (Homo sapiens, UniProt Q96NX5); assay: CaMK1gamma(CA1GLGN1) Takeda global kinase panel
[7] = molecular target: Cyclin-dependent kinase 7 (Homo sapiens, UniProt P50613); assay: CDK7(CDK7CGS1) Takeda global kinase panel
Cyclin-dependent kinase 7, sequence (P50613 whole entry): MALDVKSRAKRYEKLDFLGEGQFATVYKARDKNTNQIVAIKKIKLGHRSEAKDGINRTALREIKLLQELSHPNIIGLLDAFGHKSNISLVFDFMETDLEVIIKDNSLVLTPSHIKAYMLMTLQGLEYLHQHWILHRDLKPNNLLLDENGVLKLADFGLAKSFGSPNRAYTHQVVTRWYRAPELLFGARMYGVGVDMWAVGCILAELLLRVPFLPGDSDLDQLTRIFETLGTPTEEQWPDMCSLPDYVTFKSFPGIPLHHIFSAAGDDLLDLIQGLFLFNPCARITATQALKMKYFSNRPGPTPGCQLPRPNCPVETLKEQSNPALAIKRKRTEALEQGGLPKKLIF

[8] = molecular target: Serine/threonine-protein kinase Chk1 (Homo sapiens, UniProt O14757); assay: CHK1(CHE1CGP1) Takeda global kinase panel
Serine/threonine-protein kinase Chk1, sequence (O14757 whole entry): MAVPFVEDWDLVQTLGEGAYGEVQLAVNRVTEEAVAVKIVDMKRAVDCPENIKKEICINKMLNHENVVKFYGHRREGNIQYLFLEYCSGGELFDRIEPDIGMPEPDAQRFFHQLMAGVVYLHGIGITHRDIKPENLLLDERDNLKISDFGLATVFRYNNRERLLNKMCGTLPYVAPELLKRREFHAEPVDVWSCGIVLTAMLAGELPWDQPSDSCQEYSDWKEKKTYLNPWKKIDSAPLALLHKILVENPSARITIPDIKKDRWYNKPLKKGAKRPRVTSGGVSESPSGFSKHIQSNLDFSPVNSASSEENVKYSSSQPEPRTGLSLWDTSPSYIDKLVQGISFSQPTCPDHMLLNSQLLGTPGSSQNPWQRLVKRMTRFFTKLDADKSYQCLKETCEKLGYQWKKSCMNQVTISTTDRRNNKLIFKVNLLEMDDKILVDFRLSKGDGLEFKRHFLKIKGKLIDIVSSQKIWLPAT

[9] = molecular target: Dual specificity protein kinase CLK1 (Homo sapiens, UniProt P49759); assay: CLK1(CLK1LGF1) Takeda global kinase panel
Dual specificity protein kinase CLK1, sequence (P49759 whole entry): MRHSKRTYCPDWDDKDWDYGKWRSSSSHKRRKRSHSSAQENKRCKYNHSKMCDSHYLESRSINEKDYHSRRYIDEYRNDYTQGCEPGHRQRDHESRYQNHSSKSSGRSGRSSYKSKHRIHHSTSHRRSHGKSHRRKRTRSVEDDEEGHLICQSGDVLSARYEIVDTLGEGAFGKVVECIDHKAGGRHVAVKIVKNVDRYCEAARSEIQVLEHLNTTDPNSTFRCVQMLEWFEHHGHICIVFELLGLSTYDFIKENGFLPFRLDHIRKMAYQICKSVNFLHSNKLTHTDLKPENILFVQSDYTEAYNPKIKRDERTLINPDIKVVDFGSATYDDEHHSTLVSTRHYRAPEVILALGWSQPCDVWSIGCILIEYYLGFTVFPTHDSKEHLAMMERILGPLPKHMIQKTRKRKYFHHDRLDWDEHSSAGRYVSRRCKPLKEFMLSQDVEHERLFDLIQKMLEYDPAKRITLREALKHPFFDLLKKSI

[10] = molecular target: Death-associated protein kinase 2 (Homo sapiens, UniProt Q9UIK4); assay: DAPK2(DAP2LGF1) Takeda global kinase panel
Death-associated protein kinase 2, sequence (Q9UIK4 whole entry): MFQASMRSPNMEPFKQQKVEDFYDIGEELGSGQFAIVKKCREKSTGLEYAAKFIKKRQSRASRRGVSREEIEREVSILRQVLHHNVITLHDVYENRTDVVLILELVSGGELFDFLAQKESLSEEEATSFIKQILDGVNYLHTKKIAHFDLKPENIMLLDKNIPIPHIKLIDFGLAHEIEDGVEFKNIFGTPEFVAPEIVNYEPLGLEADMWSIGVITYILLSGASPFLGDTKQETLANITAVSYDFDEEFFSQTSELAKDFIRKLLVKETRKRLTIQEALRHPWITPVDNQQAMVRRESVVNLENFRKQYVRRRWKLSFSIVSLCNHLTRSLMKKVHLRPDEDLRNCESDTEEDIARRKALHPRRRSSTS

[11] = molecular target: Death-associated protein kinase 3 (Homo sapiens, UniProt O43293); assay: DAPK3(DAP3LGP1) Takeda global kinase panel
[12] = molecular target: Dual specificity tyrosine-phosphorylation-regulated kinase 1B (Homo sapiens, UniProt Q9Y463); assay: DYRK1B(DY1BLHY1) Takeda global kinase panel
Ephrin type-A receptor 3 = Ephrin type-A receptor 3 (Homo sapiens, UniProt P29320); assay: EphA3(EPA3LGD5) Takeda global kinase panel
Ephrin type-A receptor 6 = Ephrin type-A receptor 6 (Homo sapiens, UniProt Q9UF33); assay: EphA6(EPA6LGI5) Takeda global kinase panel
[13] = molecular target: Receptor-type tyrosine-protein kinase FLT3 (Homo sapiens, UniProt P36888); assay: FLT3(FLT3MGE1) Takeda global kinase panel
Rhodopsin kinase GRK1 = Rhodopsin kinase GRK1 (Homo sapiens, UniProt Q15835); assay: RHODK [GRK1(GRK1LGA1)] Takeda global kinase panel
[14] = molecular target: G protein-coupled receptor kinase 6 (Homo sapiens, UniProt P43250); assay: GRK6(GRK6LGP1) Takeda global kinase panel
G protein-coupled receptor kinase 6, sequence (P43250 whole entry): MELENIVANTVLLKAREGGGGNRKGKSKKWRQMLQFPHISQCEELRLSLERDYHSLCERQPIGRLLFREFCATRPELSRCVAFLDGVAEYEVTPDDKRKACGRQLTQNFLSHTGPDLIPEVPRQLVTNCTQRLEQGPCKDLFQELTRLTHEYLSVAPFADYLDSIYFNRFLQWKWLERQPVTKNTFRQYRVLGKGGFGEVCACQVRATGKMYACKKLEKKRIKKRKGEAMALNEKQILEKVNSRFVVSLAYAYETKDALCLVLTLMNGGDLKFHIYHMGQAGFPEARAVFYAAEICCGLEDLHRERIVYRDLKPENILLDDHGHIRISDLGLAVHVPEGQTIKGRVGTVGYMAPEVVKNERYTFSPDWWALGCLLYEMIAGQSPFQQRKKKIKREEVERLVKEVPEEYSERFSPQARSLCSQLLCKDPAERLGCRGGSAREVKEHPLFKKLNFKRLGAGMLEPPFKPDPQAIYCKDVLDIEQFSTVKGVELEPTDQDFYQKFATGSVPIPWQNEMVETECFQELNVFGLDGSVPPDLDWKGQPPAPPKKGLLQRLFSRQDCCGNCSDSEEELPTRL

[15] = molecular target: Serine/threonine-protein kinase Nek3 (Homo sapiens, UniProt P51956); assay: Nek3(NEK3LGRI) Takeda global kinase panel
[16] = molecular target: High affinity nerve growth factor receptor (Homo sapiens, UniProt P04629); assay: TRKA(NTR1LGN1) Takeda global kinase panel
[17] = molecular target: Platelet-derived growth factor receptor beta (Homo sapiens, UniProt P09619); assay: PDGFRbeta(PDGBIHC1) Takeda global kinase panel
[18] = molecular target: 3-phosphoinositide-dependent protein kinase 1 (Homo sapiens, UniProt O15530); assay: PDK1(PDP1LGA1) Takeda global kinase panel
[19] = molecular target: Serine/threonine-protein kinase PLK1 (Homo sapiens, UniProt P53350); assay: PLK1(PLK1LGY1) Takeda global kinase panel
[20] = molecular target: Serine/threonine-protein kinase D2 (Homo sapiens, UniProt Q9BZL6); assay: PKD2(PRD2LHY1) Takeda global kinase panel
Serine/threonine-protein kinase D2, sequence (Q9BZL6 whole entry): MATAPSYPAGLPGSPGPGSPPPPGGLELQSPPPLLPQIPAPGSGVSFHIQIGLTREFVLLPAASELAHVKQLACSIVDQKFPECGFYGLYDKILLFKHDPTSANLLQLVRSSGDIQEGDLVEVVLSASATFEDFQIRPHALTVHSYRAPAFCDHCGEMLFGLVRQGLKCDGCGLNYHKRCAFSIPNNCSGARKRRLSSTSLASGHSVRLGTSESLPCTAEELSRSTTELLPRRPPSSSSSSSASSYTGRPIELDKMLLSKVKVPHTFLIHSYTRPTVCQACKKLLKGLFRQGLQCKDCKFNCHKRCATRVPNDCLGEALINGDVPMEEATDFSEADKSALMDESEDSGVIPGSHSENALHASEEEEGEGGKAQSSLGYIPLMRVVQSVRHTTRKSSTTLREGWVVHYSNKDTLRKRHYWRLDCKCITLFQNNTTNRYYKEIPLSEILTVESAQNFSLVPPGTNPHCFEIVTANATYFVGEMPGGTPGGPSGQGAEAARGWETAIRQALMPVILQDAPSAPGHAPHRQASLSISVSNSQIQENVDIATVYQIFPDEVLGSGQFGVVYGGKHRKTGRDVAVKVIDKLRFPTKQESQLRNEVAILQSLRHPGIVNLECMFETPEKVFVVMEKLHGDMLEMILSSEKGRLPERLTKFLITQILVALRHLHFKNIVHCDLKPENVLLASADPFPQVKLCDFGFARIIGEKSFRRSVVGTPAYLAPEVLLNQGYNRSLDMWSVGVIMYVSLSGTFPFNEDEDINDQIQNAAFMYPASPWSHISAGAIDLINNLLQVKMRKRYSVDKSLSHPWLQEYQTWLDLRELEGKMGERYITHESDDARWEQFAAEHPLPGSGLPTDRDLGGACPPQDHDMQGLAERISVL

[21] = molecular target: Receptor-interacting serine/threonine-protein kinase 3 (Homo sapiens, UniProt Q9Y572); assay: RIPK3(RIP3IGRI) Takeda global kinase panel
[22] = molecular target: Rho-associated protein kinase 1 (Homo sapiens, UniProt Q13464); assay: ROCK1(ROC1LGY1) Takeda global kinase panel
[23] = molecular target: Serine/threonine-protein kinase SBK1 (Homo sapiens, UniProt Q52WX2); assay: SBK(SBK1LGY1) Takeda global kinase panel
[24] = molecular target: Serine/threonine-protein kinase Sgk2 (Homo sapiens, UniProt Q9HBY8); assay: SGK2(SGK2LGE5) Takeda global kinase panel
[25] = molecular target: Serine/threonine-protein kinase SIK1 (Homo sapiens, UniProt P57059); assay: SIK(SIK1LHY1) Takeda global kinase panel
Serine/threonine-protein kinase SIK1, sequence (P57059 whole entry): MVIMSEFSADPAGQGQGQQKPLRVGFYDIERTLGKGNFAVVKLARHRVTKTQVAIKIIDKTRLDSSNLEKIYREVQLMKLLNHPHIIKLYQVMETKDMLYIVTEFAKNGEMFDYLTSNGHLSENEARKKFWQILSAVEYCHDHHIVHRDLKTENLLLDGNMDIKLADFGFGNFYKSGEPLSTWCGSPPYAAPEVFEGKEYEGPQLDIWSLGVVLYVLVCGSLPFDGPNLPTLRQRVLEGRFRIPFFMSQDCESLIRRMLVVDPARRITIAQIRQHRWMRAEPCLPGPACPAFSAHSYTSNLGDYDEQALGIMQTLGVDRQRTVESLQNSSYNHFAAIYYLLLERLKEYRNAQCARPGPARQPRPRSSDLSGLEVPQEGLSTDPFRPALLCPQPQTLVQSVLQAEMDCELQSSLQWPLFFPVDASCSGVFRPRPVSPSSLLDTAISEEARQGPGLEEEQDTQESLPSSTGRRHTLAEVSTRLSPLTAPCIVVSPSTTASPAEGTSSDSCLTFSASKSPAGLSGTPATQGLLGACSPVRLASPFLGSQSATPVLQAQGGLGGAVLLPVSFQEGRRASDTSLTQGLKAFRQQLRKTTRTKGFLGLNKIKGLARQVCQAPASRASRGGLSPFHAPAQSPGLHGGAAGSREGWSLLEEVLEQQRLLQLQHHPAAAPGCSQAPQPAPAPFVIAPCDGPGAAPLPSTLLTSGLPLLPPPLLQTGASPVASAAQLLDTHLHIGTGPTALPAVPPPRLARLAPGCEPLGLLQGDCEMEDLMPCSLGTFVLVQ

[26] = molecular target: Serine/threonine-protein kinase SIK3 (Homo sapiens, UniProt Q9Y2K2); assay: QSK(SIK3LGP1) Takeda global kinase panel
[27] = molecular target: Serine/threonine-protein kinase 24 (Homo sapiens, UniProt Q9Y6E0); assay: MST3(ST24LGC1) Takeda global kinase panel
[28] = molecular target: STE20/SPS1-related proline-alanine-rich protein kinase (Homo sapiens, UniProt Q9UEW8); assay: STLK3(ST39LGRJ) Takeda global kinase panel
[29] = molecular target: Serine/threonine-protein kinase TBK1 (Homo sapiens, UniProt Q9UHD2); assay: TBK1(TBK1CGF1) Takeda global kinase panel
[30] = molecular target: Testis-specific serine/threonine-protein kinase 1 (Homo sapiens, UniProt Q9BXA7); assay: TSSK1(TS1BLGP1) Takeda global kinase panel
[31] = molecular target: Non-receptor tyrosine-protein kinase TYK2 (Homo sapiens, UniProt P29597); assay: Tyk2(TYK2LGF1) Takeda global kinase panel
Wee1-like protein kinase = Wee1-like protein kinase (Homo sapiens, UniProt P30291); assay: Wee1(WEE1LGF1) Takeda global kinase panel
[32] = molecular target: Phosphatidylinositol 4,5-bisphosphate 3-kinase catalytic subunit alpha isoform (Homo sapiens, UniProt P42336); assay: PI3KCA(PI3ACGR1) Takeda global kinase panel
[33] = molecular target: 5-hydroxytryptamine receptor 1D (Homo sapiens) (UniProt P28221); conditions: Compound concentration 10.0 uM
[34] = molecular target: 5-hydroxytryptamine receptor 3A (Homo sapiens) (UniProt P46098); conditions: Compound concentration 10.0 uM
[35] = molecular target: 5-hydroxytryptamine receptor 5A (Homo sapiens) (UniProt P47898); conditions: Compound concentration 10.0 uM
[36] = molecular target: Muscarinic acetylcholine receptor M5 (Homo sapiens) (UniProt P08912); conditions: Compound concentration 10.0 uM
Muscarinic acetylcholine receptor M5 (Homo sapiens), sequence (P08912 whole entry): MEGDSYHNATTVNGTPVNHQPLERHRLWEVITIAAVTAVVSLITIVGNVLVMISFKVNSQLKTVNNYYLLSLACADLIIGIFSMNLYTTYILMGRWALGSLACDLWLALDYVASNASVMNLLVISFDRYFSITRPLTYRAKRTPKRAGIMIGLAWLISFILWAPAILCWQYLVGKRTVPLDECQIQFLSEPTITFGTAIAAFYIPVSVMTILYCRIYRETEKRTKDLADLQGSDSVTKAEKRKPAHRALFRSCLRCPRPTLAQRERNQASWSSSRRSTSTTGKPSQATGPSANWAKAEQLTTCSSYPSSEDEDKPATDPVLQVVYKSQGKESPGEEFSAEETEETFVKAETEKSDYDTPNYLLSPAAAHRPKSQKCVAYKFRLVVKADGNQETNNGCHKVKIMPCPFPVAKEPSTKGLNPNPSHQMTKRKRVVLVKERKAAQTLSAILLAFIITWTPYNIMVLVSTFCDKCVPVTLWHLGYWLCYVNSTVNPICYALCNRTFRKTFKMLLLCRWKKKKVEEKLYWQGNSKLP

[37] = molecular target: Alpha-2A adrenergic receptor (Homo sapiens) (UniProt P08913); conditions: Compound concentration 10.0 uM
[38] = molecular target: Endothelin-1 receptor (Homo sapiens) (UniProt P25101); conditions: Compound concentration 10.0 uM
[39] = molecular target: Endothelin receptor type B (Homo sapiens) (UniProt P24530); conditions: Compound concentration 10.0 uM
[40] = molecular target: Estrogen receptor (Homo sapiens) (UniProt P03372); conditions: Compound concentration 10.0 uM
[41] = molecular target: Sodium-dependent dopamine transporter (Homo sapiens) (UniProt Q01959); conditions: Compound concentration 10.0 uM

Alpha-2B adrenergic receptor, sequence (P18089 whole entry): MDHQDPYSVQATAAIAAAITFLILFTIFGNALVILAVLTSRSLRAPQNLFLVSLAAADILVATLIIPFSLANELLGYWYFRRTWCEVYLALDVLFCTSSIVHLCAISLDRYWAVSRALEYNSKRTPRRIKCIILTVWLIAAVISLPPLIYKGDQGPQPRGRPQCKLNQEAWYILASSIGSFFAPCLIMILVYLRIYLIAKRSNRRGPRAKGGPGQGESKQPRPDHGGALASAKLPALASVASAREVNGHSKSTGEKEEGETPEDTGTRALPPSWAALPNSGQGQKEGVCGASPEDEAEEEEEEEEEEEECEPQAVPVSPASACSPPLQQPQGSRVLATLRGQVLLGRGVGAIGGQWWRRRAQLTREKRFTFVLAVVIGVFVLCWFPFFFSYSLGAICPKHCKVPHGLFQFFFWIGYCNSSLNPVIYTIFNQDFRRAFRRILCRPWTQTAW

CN1C(=O)[C@@H](N2CCc3c(nn(Cc4ccccc4)c3Br)C2=O)COc2ccccc21 [TP-030-2]
Ki ([1]; read-out: Ki): 2870 nM
Ki ([1]; read-out: pKi (converted)): 2820 nM
inhibition [2]: 10%
IC50 [3]: 1000 nM
IC50 [4]: 1000 nM
IC50 [5]: 1000 nM
IC50 [6]: 1000 nM
IC50 [7]: 1000 nM
IC50 [8]: 1000 nM
IC50 [9]: 1000 nM
IC50 [10]: 1000 nM
IC50 [11]: 1000 nM
IC50 [12]: 1000 nM
IC50 (Ephrin type-A receptor 3): 1000 nM
IC50 (Ephrin type-A receptor 6): 1000 nM
IC50 [13]: 1000 nM
IC50 (Rhodopsin kinase GRK1): 1000 nM
IC50 [14]: 1000 nM
IC50 [15]: 1000 nM
IC50 [16]: 1000 nM
IC50 [17]: 1000 nM
IC50 [18]: 1000 nM
IC50 [19]: 1000 nM
IC50 [20]: 1000 nM
IC50 [21]: 1000 nM
IC50 [22]: 1000 nM
IC50 [23]: 1000 nM
IC50 [24]: 1000 nM
IC50 [25]: 1000 nM
IC50 [26]: 1000 nM
IC50 [27]: 1000 nM
IC50 [28]: 1000 nM
IC50 [29]: 1000 nM
IC50 [30]: 1000 nM
IC50 [31]: 1000 nM
IC50 (Wee1-like protein kinase): 1000 nM
IC50 [32]: 1000 nM
inhibition [33]: -5.06%
inhibition [34]: 37.7%
inhibition [35]: 38.2%
inhibition [36]: 9.18%
inhibition [37]: 43%
inhibition [38]: -3%
inhibition [39]: -7%
inhibition [40]: 10%
inhibition [41]: 35%
